Source: article PMC6424957 (Scientific Reports, 2019)
Several values for one entry are separate records, joined by “and”; a condition that tells them apart may be missing. Equal entries are not always repeated. Where two headings read alike, the source gives them in different places.

Assays:
[1] = molecular target: T1, Electrophorus electricus AChE (EeAChE) (Electrophorus electricus, UniProt O42275); test: biochemical; format: biochemical
T1 construct: from human erythrocyte and E. electricus (EeAChE) (type VI-S); purchased Sigma-Aldrich (Germany) type VI-S; host or cells: Electrophorus electricus tissue
Experimental: (§1) Acetylcholinesterase (AChE, EC 3.1.1.7, from human erythrocyte and E. electricus (EeAChE) (type VI-S), butyrylcholinesterase (BChE, EC 3.1.1.8, from equine serum), carboxylesterase (CaE, EC 3.1.1.1, from porcine liver), acetylthiocholine iodide (ATCh), butylthiocholine iodide (BTCh), 5,5′-dithiobis-(2-nitrobenzoic acid) (DTNB), 4-nitrophenyl acetate (4-NPA), were purchased from Sigma-Aldrich (Germany).
(§2) AChE and BChE activities were measured by the Ellman method as described earlier. The assay solution consisted of 0.1 M K/Na phosphate buffer pH 7.5, 25 °C with the addition of 0.33 mM DTNB, 0.02 unit/mL of AChE or BChE, and 1 mM of substrate (ATCh or BTCh, respectively). The assays were carried out with a reagent blank containing all components except AChE or BChE to account for non-enzymatic hydrolysis of substrate. In addition, an enzyme blank was included that contained all components except substrate to account for non-substrate sulfhydryl groups. […] The assay solution consisted of 0.1 M K/Na phosphate buffer pH 8.0, 25 °C with the addition of 1 mM 4-nitrophenyl acetate and 0.02 unit/mL of CaE. Assays were carried out with a blank containing all components except CaE.
(§3) The test compounds were dissolved in DMSO; the incubation mixture contained 2% (v/v) of the solvent. […] The test compounds were added to the assay solution and preincubated at 25°C with the enzymes for 5 min followed by the addition of substrate. A parallel control was made for the assay solution with no inhibitor. […] Each experiment was performed three times. The results were expressed as the mean ± SEM. The reaction rates in the presence and absence of inhibitor were compared, and the percent of residual enzyme activity due to the presence of test compounds was calculated.

[2] = molecular target: T2, equine serum butyrylcholinesterase (BChE) (Equus caballus, UniProt P81908); test: biochemical; format: biochemical; details: mean ± SEM, n ≥ 3
T2 construct: butyrylcholinesterase (BChE, EC 3.1.1.8, from equine serum); purchased Sigma-Aldrich (Germany); host or cells: equine serum
Experimental: as §1, §2, §3

[3] = molecular target: T3, human erythrocyte acetylcholinesterase (AChE) (Homo sapiens, UniProt P22303); test: biochemical; format: biochemical; details: mean ± SEM, n ≥ 3
T3 construct: Acetylcholinesterase (AChE, EC 3.1.1.7, from human erythrocyte); purchased Sigma-Aldrich (Germany); host or cells: human erythrocytes
Experimental: as §1, §2, §3

[4] = ABTS radical cation scavenging assay; details: for ABTS·+ scavenging activity, TEAC value: Trolox equivalent antioxidant capacity, ratio of slopes compound/Trolox; for ABTS·+ scavenging activity, TEAC value / IC50: 1 h incubation; for IC50: concentration reducing ABTS·+ by 50%; for radical-scavenging activity, ABTS method: result in words
Experimental: This assay is based on the production of a stable dark green ABTS cation-radical (ABTS^·+) by incubating ABTS ([2,2′-azino-bis(3-eth-ylbenzothiazoline-6-sulfonic acid diammonium salt)) with potassium persulfate. […] The ABTS radical-scavenging activity of the compounds was measured according to an established method[66] with some modifications, at 30 °С in the dark; incubation time was 1 hour. […] The results were expressed as TEAC values (Trolox equivalent antioxidant capacity) calculated by dividing the slope of ABTS^·+ concentration decrease versus the antioxidant concentration by the slope of the Trolox plot.
Radical scavenging activity of the compounds was assessed using an ABTS radical decolorization assay[66] with some minor modifications. ABTS (2,2′-azino-bis-(3-ethylbenzothiazoline-6-sulfonic acid) diammonium salt) was purchased from TCI (Tokyo, Japan); potassium persulfate (di-potassium peroxodisulfate) and Trolox (6-hydroxy-2,5,7,8-tetramethychroman-2-carboxylic acid were obtained from Sigma-Aldrich Chemical Co. (St. Louis, MO, USA). Ethanol was HPLC grade. Aqueous solutions were prepared using deionized water.
Trolox was used as the antioxidant standard. A 5 mM solution of Trolox was prepared in DMSO for use as stock. Fresh working solutions of known concentrations (1–100 μM) were prepared on the day of experiments and used for calibration and as positive controls for ABTS radical cation (ABTS^•+) scavenging activity. ABTS was dissolved in deionized water to a 7 mM concentration. […] Fresh working ABTS^•+ solution was prepared for each assay.
The radical scavenging capacity of the compounds was analyzed by mixing 10 μl of compound with 240 μl of ABTS^•+ working solution. […] Ethanol blanks were run in each assay. Values were obtained from three replicates of each sample and three independent experiments.
Antioxidant capacity as a Trolox equivalent (TEAC values) was determined as the ratio between the slopes obtained from the linear correlation for concentrations of test compounds and Trolox with absorbance of ABTS radical.

[5] = Oxygen radical absorbance capacity assay (ORAC-FL); details: for ORAC TE value: ORAC-FL, AAPH, fluorescein, 37 °C, pH 7.4, Trolox taken as 1; for radical-scavenging activity, ORAC-FL method: result in words
Experimental: The ability of the conjugates to reduce the amount of peroxyl radicals as another characteristic of the antioxidant activity of the compounds was determined using the oxygen radical absorbance capacity by fluorescence (ORAC-FL) method using fluorescein (FL) as a fluorescent probe. The method is based on measuring the decrease in the intensity of fluorescence with time, which characterizes the degree of decay of the fluorescent probe under the influence of peroxyl radicals. In the presence of antioxidants, the degree of decay of the fluorescent probe decreases and, accordingly, the fluorescence time increases.
The ability of compounds to scavenge peroxyl radicals was characterized by the value of the Trolox equivalent (TE, μmol of Trolox per μmol of the tested compound), which is equal to the ratio of the Trolox concentration to the tested compound concentration having the same fluorescence intensity. Peroxyl radical scavenging capacity of Trolox is taken as one (1)[67],[68].
2,2′-Azobis-(amidinopropane) dihydrochloride (AAPH), (±)-6-hydroxy-2,5,7,8-tetramethylchromane-2-carboxylic acid (Trolox) and fluorescein (FL) were purchased from Sigma-Aldrich. The reaction was carried out at 37 °C in 75 mM K,Na phosphate buffer (pH 7.4), and the final reaction mixture was 200 µL. The tested compounds and Trolox standard were dissolved in DMSO to 10 mM and further diluted in 75 mM K,Na phosphate buffer (pH 7.4). […] The blank was composed of 20 µL 75 mM K,Na phosphate buffer (pH 7.4) containing 2% (v/v) DMSO, 120 µL FL and 60 µL AAPH, and was added in each assay. Antioxidant (the test compound or Trolox, 20 µL) and FL (120 µL, final concentration: 70 nM) solutions were placed in a black 96-well microplate and were pre-incubated for 15 min at 37 °C. AAPH solution (60 µL, final concentration 12 mM) was then added rapidly using a multichannel pipette. The fluorescence was recorded every minute for 100 min. A Trolox standard curve was also obtained in each assay. All reactions were carried out in triplicate and at least three different assays were performed for each sample.
Antioxidant curves (fluorescence vs. time) were first normalized to the curve of the blank (without antioxidant) corresponding to the same assay, and the area under the fluorescence decay curve (AUC) was calculated. The net AUC corresponding to a sample was calculated by subtracting the AUC corresponding to the blank. Regression equations were calculated by plotting the net AUC against the antioxidant concentration. The ORAC value was obtained by dividing the slope of the latter curve by the slope of the Trolox curve obtained in the same assay. […] Data were expressed as means ± SEM.

[6] = tested on: isolated rat liver mitochondria; test: Inhibition of iron-induced lipid peroxidation (TBARs); details: read-out: IC50 of Fe3+-induced LP, LP induced by 0.5 mM Fe3+, mean ± SEM, n ≥ 3
[7] = molecular target: T4, peripheral anionic site (PAS) of EeAChE (Electrophorus electricus, UniProt O42275); format: binding; details: EeAChE 7 μM, propidium iodide 8 μM; for % Displacement of propidium iodide, 3 µM: compound 3 µM; for % Displacement of propidium iodide, 20 µM: compound 20 µM
T4 construct: from human erythrocyte and E. electricus (EeAChE) (type VI-S); purchased Sigma-Aldrich (Germany) type VI-S; host or cells: Electrophorus electricus tissue
Description: The fluorescent assay used to evaluate competitive propidium iodide displacement from the PAS of AChE is commonly used as primary screening method of AChE pro-aggregation activity inhibitors. Propidium iodide is a selective ligand for the PAS of AChE responsible for Aβ binding.
EeAChE was used owing to its high degree of purification, high activity, and lower cost than human AChE. […] The fluorescence intensity of propidium iodide bound with AChE increases several times.
To determine the degree of displacement (% displacement) of propidium iodide from the PAS of AChE, EeAChE (final concentration 7 μM) was incubated with the test compound at a concentration of 3 and 20 μM in 1 mM Tris-HCl buffer pH 8.0, 25 °C for 15 min. Then, propidium iodide solution (final concentration 8 μM) was added, the samples were incubated for 15 min and the fluorescence spectrum (530 nm (excitation) and 600 nm (emission)) was taken. Donepezil and tacrine were used as reference compounds. The blank contained propidium iodide of the same concentration in 1 mM Tris-HCl buffer pH 8.0. The measurements were carried out in triplicate on a microplate reader FLUOStar Optima (BMG Labtech Germany).
The degree of displacement (% displacement) of propidium iodide from the peripheral anionic site of AChE was calculated by the following formula: %Displacement=100−(IFAChE+Propidium+inhibitor/IFAChE+Propidium)[…], where IFAChE + Propidium is the fluorescence intensity of the propidium associated with AChE in the absence of the test compound (taken as 100%), and IFAChE + Propidium + inhibitor is the fluorescence intensity of the propidium associated with AChE in the presence of the test compound.

[8] = mean ± SEM, n ≥ 3, read-out: EeAChE IC50

T4 sequence (O42275 24-633): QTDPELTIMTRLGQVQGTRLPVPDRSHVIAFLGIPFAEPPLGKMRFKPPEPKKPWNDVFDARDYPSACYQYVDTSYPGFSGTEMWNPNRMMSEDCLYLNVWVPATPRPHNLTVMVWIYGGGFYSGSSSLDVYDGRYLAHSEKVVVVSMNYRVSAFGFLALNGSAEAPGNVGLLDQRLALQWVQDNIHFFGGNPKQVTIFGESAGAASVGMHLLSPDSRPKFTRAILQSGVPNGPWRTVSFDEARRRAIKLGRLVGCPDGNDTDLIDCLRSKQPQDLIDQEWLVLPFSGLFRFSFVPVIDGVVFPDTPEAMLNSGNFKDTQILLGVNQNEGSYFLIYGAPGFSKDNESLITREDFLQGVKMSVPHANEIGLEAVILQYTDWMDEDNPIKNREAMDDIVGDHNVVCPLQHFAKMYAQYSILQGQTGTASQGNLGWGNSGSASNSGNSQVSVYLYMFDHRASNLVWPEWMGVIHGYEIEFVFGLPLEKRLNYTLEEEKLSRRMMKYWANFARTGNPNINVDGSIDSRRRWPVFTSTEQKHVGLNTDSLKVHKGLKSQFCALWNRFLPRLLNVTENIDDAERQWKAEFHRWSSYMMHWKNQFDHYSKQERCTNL
T1 sequence (O42275 24-633): as above
T2 sequence (P81908 whole entry): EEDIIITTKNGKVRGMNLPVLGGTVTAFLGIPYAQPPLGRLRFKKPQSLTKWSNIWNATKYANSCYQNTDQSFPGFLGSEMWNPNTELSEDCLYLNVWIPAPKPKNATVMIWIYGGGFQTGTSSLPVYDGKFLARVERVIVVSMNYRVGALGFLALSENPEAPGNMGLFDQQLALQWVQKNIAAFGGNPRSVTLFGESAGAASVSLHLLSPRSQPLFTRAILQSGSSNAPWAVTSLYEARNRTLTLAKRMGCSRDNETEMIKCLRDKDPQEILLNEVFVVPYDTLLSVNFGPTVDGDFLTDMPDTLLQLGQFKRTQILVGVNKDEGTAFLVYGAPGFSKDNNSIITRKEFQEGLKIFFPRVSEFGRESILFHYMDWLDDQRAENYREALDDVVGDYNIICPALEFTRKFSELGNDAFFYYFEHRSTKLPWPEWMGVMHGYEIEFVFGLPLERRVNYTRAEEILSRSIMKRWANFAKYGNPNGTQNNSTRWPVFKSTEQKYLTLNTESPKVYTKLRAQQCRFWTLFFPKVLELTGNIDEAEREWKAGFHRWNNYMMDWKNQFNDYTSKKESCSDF
T3 sequence (P22303 32-617 isoform P22303-2 limits assumed): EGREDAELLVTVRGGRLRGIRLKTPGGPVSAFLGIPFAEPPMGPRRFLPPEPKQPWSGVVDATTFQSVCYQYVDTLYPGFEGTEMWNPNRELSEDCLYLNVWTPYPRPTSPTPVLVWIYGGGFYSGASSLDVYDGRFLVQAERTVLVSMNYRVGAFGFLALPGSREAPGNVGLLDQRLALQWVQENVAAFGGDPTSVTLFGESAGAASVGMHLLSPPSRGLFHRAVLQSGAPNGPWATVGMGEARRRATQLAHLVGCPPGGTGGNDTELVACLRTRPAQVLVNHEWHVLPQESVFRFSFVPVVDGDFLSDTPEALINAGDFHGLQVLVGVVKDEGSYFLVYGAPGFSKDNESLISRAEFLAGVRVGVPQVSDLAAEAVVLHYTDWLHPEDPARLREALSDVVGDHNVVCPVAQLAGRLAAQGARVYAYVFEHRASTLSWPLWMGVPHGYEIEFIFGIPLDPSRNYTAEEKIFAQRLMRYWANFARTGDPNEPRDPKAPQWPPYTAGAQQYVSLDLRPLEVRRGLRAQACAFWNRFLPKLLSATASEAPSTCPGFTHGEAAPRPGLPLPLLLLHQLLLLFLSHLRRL

SMILES: CN1CCc2c(c3ccccc3n2CCC(=O)N2c3ccc(N(C)C)cc3Sc3cc(N(C)C)ccc32)C1.Cl.Cl.Cl [Compound 1]
- IC50 [1, 8]: 830 ± 30 nM
- IC50 [2]: 5940 ± 550 nM
- IC50 [3]: 3170 ± 130 nM
- ABTS·+ scavenging activity, TEAC value [4]: 0.63 ± 0.045
- IC50 [4]: 35400 ± 3400 nM
- ORAC TE value [5]: 7.28 ± 0.65 µmol Trolox/ µmol comp.
- IC50 [6]: 1450 ± 290 nM

SMILES: CCN1CCc2c(c3ccccc3n2CCC(=O)N2c3ccc(N(C)C)cc3Sc3cc(N(C)C)ccc32)C1.Cl.Cl.Cl [Compound 2]
- IC50 [1, 8]: 670 ± 40 nM
- IC50 [2]: 2530 ± 220 nM
- IC50 [3]: 2950 ± 70 nM
- % Displacement of propidium iodide, 3 µM [7]: 12.9 ± 1.1%
- % Displacement of propidium iodide, 20 µM [7]: 37.1 ± 2.0%
- ABTS·+ scavenging activity, TEAC value [4]: 1.03 ± 0.07
- IC50 [4]: 19100 ± 1520 nM
- ORAC TE value [5]: 8.80 ± 0.96 µmol Trolox/ µmol comp.
- IC50 [6]: 680 ± 70 nM

SMILES: Cc1ccc2c(c1)c1c(n2CCC(=O)N2c3ccc(N(C)C)cc3Sc3cc(N(C)C)ccc32)CCN(C)C1 [Compound 3]
- IC50 [1, 8]: 1470 ± 80 nM
- IC50 [2]: 1820 ± 140 nM
- IC50 [3]: 1730 ± 110 nM
- % Displacement of propidium iodide, 3 µM [7]: 8.1 ± 0.7%
- % Displacement of propidium iodide, 20 µM [7]: 35.6 ± 1.5%
- ABTS·+ scavenging activity, TEAC value [4]: 0.79 ± 0.06
- IC50 [4]: 27500 ± 1640 nM
- ORAC TE value [5]: 7.44 ± 0.74 µmol Trolox/ µmol comp.
- IC50 [6]: 2290 ± 470 nM

SMILES: CCN1CCc2c(c3cc(C)ccc3n2CCC(=O)N2c3ccc(N(C)C)cc3Sc3cc(N(C)C)ccc32)C1.Cl.Cl.Cl [Compound 4]
- IC50 [1, 8]: 650 ± 50 nM
- IC50 [2]: 17900 ± 1400 nM
- IC50 [3]: 4030 ± 360 nM
- % Displacement of propidium iodide, 3 µM [7]: 11.8 ± 0.6%
- % Displacement of propidium iodide, 20 µM [7]: 37.6 ± 1.8%
- ABTS·+ scavenging activity, TEAC value [4]: 0.99 ± 0.08
- IC50 [4]: 20500 ± 2050 nM
- ORAC TE value [5]: 9.82 ± 0.79 µmol Trolox/ µmol comp.
- IC50 [6]: 710 ± 10 nM

SMILES: CCCN1CCc2c(c3cc(C)ccc3n2CCC(=O)N2c3ccc(N(C)C)cc3Sc3cc(N(C)C)ccc32)C1.Cl.Cl.Cl [Compound 5]
- IC50 [1, 8]: 800 ± 70 nM
- IC50 [2]: 8420 ± 830 nM
- IC50 [3]: 3950 ± 210 nM
- % Displacement of propidium iodide, 3 µM [7]: 14.2 ± 0.9%
- % Displacement of propidium iodide, 20 µM [7]: 35.1 ± 0.9%
- ABTS·+ scavenging activity, TEAC value [4]: 0.99 ± 0.05
- IC50 [4]: 19600 ± 1820 nM
- ORAC TE value [5]: 7.70 ± 0.84 µmol Trolox/ µmol comp.
- IC50 [6]: 750 ± 10 nM

SMILES: Cc1ccc2c(c1)c1c(n2CCC(=O)N2c3ccc(N(C)C)cc3Sc3cc(N(C)C)ccc32)CCN(C(C)C)C1.Cl.Cl.Cl [Compound 6]
- IC50 [1, 8]: 1070 ± 80 nM
- IC50 [2]: 970 ± 50 nM
- IC50 [3]: 7370 ± 420 nM
- % Displacement of propidium iodide, 3 µM [7]: 7.7 ± 0.5%
- % Displacement of propidium iodide, 20 µM [7]: 30.0 ± 0.9%
- ABTS·+ scavenging activity, TEAC value [4]: 0.96 ± 0.07
- IC50 [4]: 21200 ± 1750 nM
- ORAC TE value [5]: 7.12 ± 0.64 µmol Trolox/ µmol comp.
- IC50 [6]: 580 ± 30 nM

SMILES: CN1CCc2c(c3cc(F)ccc3n2CCC(=O)N2c3ccc(N(C)C)cc3Sc3cc(N(C)C)ccc32)C1 [Compound 7]
- IC50 [1, 8]: 2090 ± 190 nM
- IC50 [2]: 10500 ± 900 nM
- IC50 [3]: 6860 ± 320 nM
- % Displacement of propidium iodide, 3 µM [7]: 6.7 ± 0.5%
- % Displacement of propidium iodide, 20 µM [7]: 29.8 ± 2.1%
- ABTS·+ scavenging activity, TEAC value [4]: 1.08 ± 0.08
- IC50 [4]: 19000 ± 2280 nM
- ORAC TE value [5]: 10.93 ± 0.98 µmol Trolox/ µmol comp.
- IC50 [6]: 3200 ± 400 nM

SMILES: CN(C)c1ccc2nc3ccc(=[N+](C)C)cc-3sc2c1 [MB, methylene blue, reference compound]
- IC50 [1]: 210 ± 20 nM
- IC50 [2]: 11100 ± 100 nM
- % Displacement of propidium iodide, 3 µM [7]: 20% and 20.9 ± 1.9%
- % Displacement of propidium iodide, 20 µM [7]: 40% and 40.8 ± 3.7%
- radical-scavenging activity, ABTS method [4]: not detectable
- radical-scavenging activity, ORAC-FL method [5]: not detectable
- IC50 [6]: 4000 ± 600 nM

SMILES: CN(C)c1ccc2c(c1)Sc1cc(N(C)C)ccc1N2 [MBH2, leucomethylene blue, reference compound]
- IC50 [1]: 280 ± 20 nM
- IC50 [2]: 10700 ± 200 nM
- IC50 [3]: 1760 ± 90 nM
- % Displacement of propidium iodide, 3 µM [7]: 17.7 ± 1.8%
- % Displacement of propidium iodide, 20 µM [7]: 36.9 ± 3.3%
- radical-scavenging activity, ABTS method [4]: not detectable
- radical-scavenging activity, ORAC-FL method [5]: not detectable
- IC50 [6]: 1580 ± 490 nM
